{"source": "patent US9655990B2", "about": "“Polymer based hydrogel” (YEDITEPE UNIVERSITESI, priority 2013, dated 2017)", "key": {"Bax and p53 genes": {"test_system": "Bax and p53 genes", "test": "Real time PCR, apoptotic gene levels", "assay_type": "cell-based", "method": "(§1) Real time PCR (Polymerase Chain Reaction) analyses were performed according to the literature by using SYBR Green method (Yalvac et al, 2010). The primers belonging to the collagen, fibronectin, laminin, Akt, Bax and P53 genes were designed using Primer BLAST software (The National Center for Biotechnology=NCBI). Total RNAs were isolated from the cells on which gel combination was applied and cDNA was synthesized. The synthesized cDNAs were mixed with primers in SYBR Green mix solution such that the final volume will be 20 μl and the expression levels of the genes (FIG. 8) were analyzed by using BIO-RAD device."}, "malondialdehyde": {"test_system": "malondialdehyde", "test": "Malondialdehyde (MDA) level in treated cells", "assay_type": "cell-based", "settings": "in comparison to the control group", "method": "(§2) Antioxidant parameters were determined by glutathione peroxidase and superoxide dismutase enzyme activity assay and analysis of the MDA (malondialdehyde) levels. The cells which were subjected to the gel combination, to the active agent and only to the medium for control purposes in 6-well culture plates were collected and protein isolation was performed from the cell pellet by determined by measuring absorbance and drawing a standard curve at 595 nm wavelength with Bradford solution in 96-well ELISA plates by using bovine albumin protein standards (0.125, 0.25, 0.5, 0.75, 1.0, 1.5, 2.0 mg/ml). The enzyme activity assays and MDA levels were determined such that they wilt comply with the protocols given in commercials kits (FIG. 9)."}, "glutathione peroxidase": {"test_system": "glutathione peroxidase", "test": "Glutathione peroxidase enzyme activity assay in treated cells", "assay_type": "cell-based", "settings": "in comparison to the control group", "method": "as §2"}, "L929 (Mouse Fibroblast)": {"test_system": "L929 (Mouse Fibroblast)", "test": "In vitro wound healing scratch assay, L929 cells", "assay_type": "cell-based", "method": "(§3) In order to determine the effect of the gel on wound healing, its capacity for cell migration and wound closure was analyzed by using the scratch assay described in the literature (Walter et al. 2010). […] The cells were seeded onto 12 well culture plates at a concentration of 100,000 cells/well, and by storing them in a carbon dioxide incubator so that they were enabled to attach and reach the sufficient density. Scratches were formed by using 200 μl pipette tip such that they will be perpendicular to the horizontal lines drawn by an acetate pen from the center of the wells to the outside of the wells. Gel combination was applied on the cells and scratch closure was observed. Setrach closure (FIG. 6-7) was analyzed by using NIH Image program upon photographing the regions of the straches which correspond to the lines drawn by an acetate pen and which are in the field of view of the microscope at 0, 12 and 24 hours."}, "L929-HUVEC co-culture": {"test_system": "L929-HUVEC co-culture", "test": "In vitro wound healing scratch assay, L929-HUVEC co-culture", "assay_type": "cell-based", "method": "as §3"}, "HF (Human Fibroblast)": {"test_system": "HF (Human Fibroblast)", "test": "In vitro wound healing scratch assay, human fibroblast cells", "assay_type": "cell-based", "method": "as §3"}, "superoxide dismutase": {"test_system": "superoxide dismutase", "test": "Superoxide dismutase enzyme activity assay in treated cells", "assay_type": "cell-based", "settings": "determined indirectly", "method": "as §2"}, "Akt gene": {"test_system": "Akt gene", "test": "Real time PCR, Akt gene level", "assay_type": "cell-based", "method": "as §1"}}}
{"substance": "sodium pentaborate pentahydrate", "values": [{"measurement": "apoptotic gene levels (Bax, p53)", "setting": "Bax and p53 genes", "value": "decreased"}, {"measurement": "malondialdehyde levels", "setting": "malondialdehyde", "value": "low MDA levels"}, {"measurement": "glutathione peroxidase enzyme activity", "setting": "glutathione peroxidase", "value": "substantial amount of enzyme activity"}, {"measurement": "karyotype", "setting": "human fibroblast cells", "value": "maintained their normal karyotypes"}, {"measurement": "wound closure", "setting": "L929 (Mouse Fibroblast); 12 hours", "value": 71, "unit": "%"}, {"measurement": "wound closure rate", "setting": "L929 (Mouse Fibroblast); 24 hours", "value": 84, "unit": "%"}, {"measurement": "wound closure rate", "setting": "L929-HUVEC co-culture; 12 hours", "value": 59, "unit": "%"}, {"measurement": "wound closure rate", "setting": "L929-HUVEC co-culture; 24 hours", "value": 100, "unit": "%"}, {"measurement": "wound closure rate", "setting": "HF (Human Fibroblast); 12 hours", "value": 58, "unit": "%"}, {"measurement": "wound closure rate", "setting": "HF (Human Fibroblast); 24 hours", "value": 91, "unit": "%"}, {"measurement": "superoxide dismutase enzyme activity", "setting": "superoxide dismutase", "value": "high level of enzyme activity"}, {"measurement": "akt gene levels", "setting": "Akt gene", "value": "decreased"}]}
